Patent US20050037446A1, “Agents that recognize src when phosphorylated at serine 17” (priority 2001, published 2005)

What was measured:
[1] = tested on: Rap1; details: NIH3T3 cells, pretreatment; cited from earlier work
[2] = tested on: Ras; assay: Ras activation affinity assay (GST-Raf1-RBD), Hek293 cells; type: cell-based
Protocol: (§1) Endogenous GTP-loaded Ras was determined using a Ras activation affinity assay as follows. Hek293 cells were grown, stimulated, and lysed as described above. Activated Ras was assayed as previously described (Schmitt and Stork, Mol. Cell. Biol. 21:3671-83, 2001). Briefly, equivalent amounts of lysates from stimulated cells were incubated with GST-Rafl-RBD (Ras-binding domain) as specified by the manufacturer (Upstate Biotechnology, Lake Placid, N.Y.). Proteins were eluted with 2×Laemmli buffer and applied to a 12% SDS polyacrylamide gel. Proteins were transferred to a PVDF membrane, blocked at room temperature for 1 hour in 5% milk and probed with either Ras or Flag antibody overnight at 4° C., followed by an HRP-conjugated anti-mouse secondary. Proteins were detected using enhanced chemiluminescence.
Mutation of tyrosine 527 of Src to phenylanaline (Y527F) produces a constitutively active (oncogenic) Src by eliminating the inhibitory phosphorylation at Y527 (Xu et al. Mol. Cell. 3(5): 629-38, 1999; Brown and Cooper, Biochim. Biophys. Acta 1287(2-3): 121-49, 1996). To determine the effect of this mutant on Ras and Rap1 activation, Hek293 cells were transfected with Flag-tagged Rap1 or Flag-tagged Ras, in the presence or absence of pcDNA3, SrcY527F, SrcS17A/Y527F, SrcS17D/Y527F, CBR, or Cb1-ct using the methods described above. […]

[3] = tested on: Cb1/C3G with Src; assay: Co-immunoprecipitation of Src, Cb1 and C3G, Hek293 cells; type: cell-based
Protocol: To examine whether a similar mechanism might underlie signaling from GPCRs, the following methods were used. Hek293 cells were transfected with Flag-tagged SrcWT, SrcS17A, or SrcS17D, using the methods disclosed herein. Cells were treated with 10 μM isoproterenol and equivalent amounts of lysates immunoprecipitated with Flag antibody. The presence of endogenous Cb1 within the eluates was examined by Western blotting. The ability of isoproterenol to induce Rap1-recruitment of B-Raf was blocked by both Cb1-ct and CBR.
Cells were treated with isoproterenol or left untreated and equal amounts of lysates immunoprecipitated with Myc antibody and the presence of endogenous C3G within the eluates examined by Westein blot using the methods disclosed herein.
Equivalent amounts of lysates were immunoprecipitated with Flag antibody and the presence of endogenous C3G within the eluates was examined by Western blots as described herein.

[4] = tested on: Ras; assay: Ras activation affinity assay in SYF and Src++ cells; type: cell-based, mouse
Protocol: as §1
To determine which SFK was mediating these effects, cell lines derived from mouse embryo fibroblasts that lack SFKs, were used as described in Example 3. SYF and Srcd cells were transfected with Flag-Rap 1, and WT Src or pcDNA3 vector alone as described in Example 3. Cells were stimulated with isoproterenol or left untreated, and then cell lysates were examined for active GTP-loaded Rap1 (Flag-Rap1-GTP) as described in Examples 1 and 6. Isoproterenol's ability to activate Rap1 was absent in SYF cells, but was retained in Src^++ cells. […]

SMILES | Effect on Forskolin's activation of endogenous Rap1 [1] | Activation of endogenous Ras [2] | Association between C3G and transfected Cb1 [3] | Ras activation by agonist ([4]; SYF cells) | Ras activation by agonist ([4]; Src++ cells)
O=S(=O)(NCCNC/C=C/c1ccc(Br)cc1)c1cccc2cnccc12 [H89, N-[2(Bromocimamylamino)ethyl]-5-isoquinolinesulfonamide] | blocked |  |  |  | 
CC(C)NCC(O)c1ccc(O)c(O)c1 (centres unmarked) [isoproterenol] |  | activated endogenous Ras | induced an association | absent | retained
